# According to the supplement of paper PMC10307832:
# Columns and labels:
# Experiment in all cases: relative viability (nuclei count vs DMSO), 5 days (fraction); higher = more cells survive
# ChaGo-K-1 = test system: ChaGo-K-1
# Method in brief: (§1)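 For relative viability, nuclei counts in treated wells were divided by those in vehicle wells. Lung cancer cell lines had been pin-tool dosed in 1536-well plates the day after seeding and cultured for 5 days, then fixed and stained in one step (final 0.05% Triton X-100, 1% formaldehyde, 1 ug/ml Hoechst) and imaged at 4×. Doses were one drug alone or a fixed anchor-drug dose plus five library-drug doses (not always all listed) in √10 steps, and values are duplicate-plate medians.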
# HCC-366 = test system: HCC-366
# Method in brief: as §1
# NCI-H1793 = test system: NCI-H1793
# Method in brief: as §1
# EPLC-272H = test system: EPLC-272H
# Method in brief: as §1
# NCI-H1734 = test system: NCI-H1734
# Method in brief: as §1
# COR-L23 = test system: COR-L23
# Method in brief: as §1
# NCI-H1944 = test system: NCI-H1944
# Method in brief: as §1
# HCC-15 = test system: HCC-15
# Method in brief: as §1
# NCI-H3122 = test system: NCI-H3122
# Method in brief: as §1
# ABC-1 = test system: ABC-1
# Method in brief: as §1
# NCI-H1355 = test system: NCI-H1355
# Method in brief: as §1
# PC-14 = test system: PC-14
# Method in brief: as §1
# NCI-H2405 = test system: NCI-H2405
# Method in brief: as §1
# NCI-H2347 = test system: NCI-H2347
# Method in brief: as §1
# HCC-827 = test system: HCC-827
# Method in brief: as §1
# LCLC-103H = test system: LCLC-103H
# Method in brief: as §1
# NCI-H2228 = test system: NCI-H2228
# Method in brief: as §1
# NCI-H2085 = test system: NCI-H2085
# Method in brief: as §1
# NCI-H2023 = test system: NCI-H2023
# Method in brief: as §1
# NCI-H2009 = test system: NCI-H2009
# Method in brief: as §1
# SW 1573 = test system: SW 1573
# Method in brief: as §1
smiles,measurement,setting,value
CCNC(=O)c1noc(-c2cc(C(C)C)c(O)cc2O)c1-c1ccc(CN2CCOCC2)cc1 [Luminespib] + COc1cc2c(Oc3ccc(NC(=O)C4(C(=O)Nc5ccc(F)cc5)CC4)cc3F)ccnc2cc1OCCCN1CCOCC1 [Foretinib] (partner 0.25 µM),relative viability,ChaGo-K-1; first compound 0.002 µM,0.889
same,relative viability,ChaGo-K-1; first compound 0.006325 µM,0.92
same,relative viability,ChaGo-K-1; first compound 0.02 µM,1.02
same,relative viability,ChaGo-K-1; first compound 0.06325 µM,0.37
same,relative viability,ChaGo-K-1; first compound 0.2 µM,0.299
same,relative viability,HCC-366; first compound 0.002 µM,0.925
same,relative viability,HCC-366; first compound 0.006325 µM,0.921
same,relative viability,HCC-366; first compound 0.02 µM,0.921
same,relative viability,HCC-366; first compound 0.06325 µM,0.887
same,relative viability,HCC-366; first compound 0.2 µM,0.199
same,relative viability,NCI-H1793; first compound 0.002 µM,0.739
same,relative viability,NCI-H1793; first compound 0.006325 µM,0.892
same,relative viability,NCI-H1793; first compound 0.02 µM,0.472
same,relative viability,NCI-H1793; first compound 0.06325 µM,0.551
same,relative viability,NCI-H1793; first compound 0.2 µM,0.189
same,relative viability,EPLC-272H; first compound 0.002 µM,0.74
same,relative viability,EPLC-272H; first compound 0.006325 µM,0.666
same,relative viability,EPLC-272H; first compound 0.06325 µM,0.625
same,relative viability,EPLC-272H; first compound 0.2 µM,0.0989
same,relative viability,NCI-H1734; first compound 0.002 µM,0.9
same,relative viability,NCI-H1734; first compound 0.006325 µM,0.915
same,relative viability,NCI-H1734; first compound 0.02 µM,0.697
same,relative viability,NCI-H1734; first compound 0.06325 µM,0.175
same,relative viability,NCI-H1734; first compound 0.2 µM,0.171
same,relative viability,COR-L23; first compound 0.002 µM,1.06
same,relative viability,COR-L23; first compound 0.006325 µM,0.894
same,relative viability,COR-L23; first compound 0.02 µM,1.12
same,relative viability,COR-L23; first compound 0.06325 µM,0.124
same,relative viability,COR-L23; first compound 0.2 µM,0.105
same,relative viability,NCI-H1944; first compound 0.002 µM,0.937
same,relative viability,NCI-H1944; first compound 0.006325 µM,0.884
same,relative viability,NCI-H1944; first compound 0.02 µM,0.653
same,relative viability,NCI-H1944; first compound 0.06325 µM,0.767
same,relative viability,NCI-H1944; first compound 0.2 µM,0.419
same,relative viability,HCC-15; first compound 0.002 µM,1.09
same,relative viability,HCC-15; first compound 0.006325 µM,0.971
same,relative viability,HCC-15; first compound 0.02 µM,1.07
same,relative viability,HCC-15; first compound 0.06325 µM,0.151
same,relative viability,HCC-15; first compound 0.2 µM,0.126
same,relative viability,NCI-H3122; first compound 0.002 µM,1.07
same,relative viability,NCI-H3122; first compound 0.006325 µM,0.887
same,relative viability,NCI-H3122; first compound 0.02 µM,0.925
same,relative viability,NCI-H3122; first compound 0.06325 µM,0.0893
same,relative viability,NCI-H3122; first compound 0.2 µM,0.0769
same,relative viability,ABC-1; first compound 0.002 µM,1.08
same,relative viability,ABC-1; first compound 0.006325 µM,0.881
same,relative viability,ABC-1; first compound 0.02 µM,0.859
same,relative viability,ABC-1; first compound 0.06325 µM,0.583
same,relative viability,ABC-1; first compound 0.2 µM,0.206
same,relative viability,NCI-H1355; first compound 0.002 µM,1.02
same,relative viability,NCI-H1355; first compound 0.006325 µM,0.912
same,relative viability,NCI-H1355; first compound 0.02 µM,0.671
same,relative viability,NCI-H1355; first compound 0.06325 µM,0.927
same,relative viability,NCI-H1355; first compound 0.2 µM,0.622
same,relative viability,PC-14; first compound 0.002 µM,0.967
same,relative viability,PC-14; first compound 0.006325 µM,0.882
same,relative viability,PC-14; first compound 0.02 µM,0.945
same,relative viability,PC-14; first compound 0.06325 µM,0.567
same,relative viability,PC-14; first compound 0.2 µM,0.125
same,relative viability,NCI-H2405; first compound 0.002 µM,1.08
same,relative viability,NCI-H2405; first compound 0.006325 µM,0.852
same,relative viability,NCI-H2405; first compound 0.02 µM,1
same,relative viability,NCI-H2405; first compound 0.06325 µM,0.227
same,relative viability,NCI-H2405; first compound 0.2 µM,0.2
same,relative viability,NCI-H2347; first compound 0.002 µM,0.987
same,relative viability,NCI-H2347; first compound 0.006325 µM,0.64
same,relative viability,NCI-H2347; first compound 0.02 µM,0.59
same,relative viability,NCI-H2347; first compound 0.06325 µM,0.922
same,relative viability,NCI-H2347; first compound 0.2 µM,0.376
same,relative viability,HCC-827; first compound 0.002 µM,1.06
same,relative viability,HCC-827; first compound 0.006325 µM,0.971
same,relative viability,HCC-827; first compound 0.02 µM,0.869
same,relative viability,HCC-827; first compound 0.06325 µM,0.692
same,relative viability,HCC-827; first compound 0.2 µM,0.152
same,relative viability,LCLC-103H; first compound 0.002 µM,0.826
same,relative viability,LCLC-103H; first compound 0.006325 µM,0.778
same,relative viability,LCLC-103H; first compound 0.02 µM,0.757
same,relative viability,LCLC-103H; first compound 0.06325 µM,0.87
same,relative viability,LCLC-103H; first compound 0.2 µM,0.362
same,relative viability,NCI-H2228; first compound 0.002 µM,0.776
same,relative viability,NCI-H2228; first compound 0.006325 µM,0.844
same,relative viability,NCI-H2228; first compound 0.02 µM,0.692
same,relative viability,NCI-H2228; first compound 0.06325 µM,0.111
same,relative viability,NCI-H2228; first compound 0.2 µM,0.117
same,relative viability,NCI-H2085; first compound 0.002 µM,1.19
same,relative viability,NCI-H2085; first compound 0.006325 µM,0.896
same,relative viability,NCI-H2085; first compound 0.02 µM,1.07
same,relative viability,NCI-H2085; first compound 0.06325 µM,0.603
same,relative viability,NCI-H2085; first compound 0.2 µM,0.457
same,relative viability,NCI-H2023; first compound 0.002 µM,0.739
same,relative viability,NCI-H2023; first compound 0.006325 µM,0.884
same,relative viability,NCI-H2023; first compound 0.02 µM,0.438
same,relative viability,NCI-H2023; first compound 0.06325 µM,0.123
same,relative viability,NCI-H2023; first compound 0.2 µM,0.0586
same,relative viability,NCI-H2009; first compound 0.002 µM,1.22
same,relative viability,NCI-H2009; first compound 0.006325 µM,1.16
same,relative viability,NCI-H2009; first compound 0.02 µM,1.33
same,relative viability,NCI-H2009; first compound 0.06325 µM,0.298
same,relative viability,NCI-H2009; first compound 0.2 µM,0.0898
same,relative viability,SW 1573; first compound 0.002 µM,0.91
same,relative viability,SW 1573; first compound 0.006325 µM,0.766
same,relative viability,SW 1573; first compound 0.02 µM,0.521
same,relative viability,SW 1573; first compound 0.06325 µM,0.148
same,relative viability,SW 1573; first compound 0.2 µM,0.119
